In the supplement of paper PMC11208160:
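Note: IS621 bridge recombinase in Escherichia coli cells against a fixed T5 target plasmid.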

Experiment: recombinant UMI read abundance after kanamycin selection (control-corrected) (log10(CPM+1)); higher = more efficient recombination; extreme values may be limits of the assay; sequences stand for … in AGTGCAGAGAAAATCGGCCAGTTTTCTCTGCCTGCAGTCCGCATGCCGTGGGACCCCTTGGGTTCTAACCTGTTGCCTAGATTTATGCAGCGGACTGCCTTTCTCCCAAAGTGATAAACCGG…AGGTTGGTTTCACT; site = the 11-nt donor
Procedure, shortened: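 Each donor and donor-binding-loop pair was tracked by a 12-nt UMI on a plasmid carrying a promoterless kanamycin gene. With a second plasmid supplying a fixed target and T7-inducible IS621 bridge recombinase, the pool was plated in Escherichia coli on IPTG (0.07 mM) plus kanamycin or unselected. Sequencing of recombinant UMIs across the donor–target junction gave counts expressed as log10(CPM+1) after replicate averaging and control-derived scaling.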
For “GTTGTTGCATGGACCGGTTTTCCCGGTAATCCGTATTTGGT (site GTTGTTGCTAC)”, the “recombinant UMI read abundance (log10)” value was 1.83.
For “GTTGTTGCATGGACCGGTTTTCCCGGTAATCCGTATTTGGT (site GTTGTTTCTAC)”, the “recombinant UMI read abundance (log10)” value was 0.
In the case of “GTTTAAGCATGGACCGGTTTTCCCGGTAATCCGTATTTGAC (site GTTTAAGCTGT)”, the “recombinant UMI read abundance (log10)” value is reported as 2.24.
In the case of “GTTTAGGCATGGACCGGTTTTCCCGGTAATCCGTATTTGCA (site GTTTAGGCTTG)”, the “recombinant UMI read abundance (log10)” value is reported as 2.03.
With “GTTTAGTCATGGACCGGTTTTCCCGGTAATCCGTATTTGAT (site GTTTAGTCTAT)” the “recombinant UMI read abundance (log10)” value was 1.59.
With “GTTTCGACATGGACCGGTTTTCCCGGTAATCCGTATTTGTC (site GTTTCGACTGA)” the “recombinant UMI read abundance (log10)” value was 0.157.
With “GTTTGAGCATGGACCGGTTTTCCCGGTAATCCGTATTTGCA (site GTTAGAGCTTG)” the “recombinant UMI read abundance (log10)” value was 1.32.
For “GTTTGAGCATGGACCGGTTTTCCCGGTAATCCGTATTTGCA (site GTTCGAGCTTG)”, the “recombinant UMI read abundance (log10)” value was 1.89.
For “GTTTGAGCATGGACCGGTTTTCCCGGTAATCCGTATTTGCA (site GTTGGAGCTTG)”, the “recombinant UMI read abundance (log10)” value was 1.55.
For “GTTTGAGCATGGACCGGTTTTCCCGGTAATCCGTATTTGCA (site GTTTGAGCTTG)”, the “recombinant UMI read abundance (log10)” value was 2.07.
In the case of “GTTTGCACATGGACCGGTTTTCCCGGTAATCCGTATTTGTA (site GTATGCACTTA)”, the “recombinant UMI read abundance (log10)” value is reported as 0.00807.
In the case of “GTTTGCACATGGACCGGTTTTCCCGGTAATCCGTATTTGTA (site GTCTGCACTTA)”, the “recombinant UMI read abundance (log10)” value is reported as 0.253.
For “GTTTGCACATGGACCGGTTTTCCCGGTAATCCGTATTTGTA (site GTGTGCACTTA)”, the “recombinant UMI read abundance (log10)” value was 0.0346.
For “GTTTGCACATGGACCGGTTTTCCCGGTAATCCGTATTTGTA (site GTTTGCACTTA)”, the “recombinant UMI read abundance (log10)” value was 0.721.
With “GTTTGGACATGGACCGGTTTTCCCGGTAATCCGTATTTGAC (site GATTGGACTGT)” the “recombinant UMI read abundance (log10)” value was 0.
With “GTTTGGACATGGACCGGTTTTCCCGGTAATCCGTATTTGAC (site GCTTGGACTGT)” the “recombinant UMI read abundance (log10)” value was 1.
For “GTTTGGACATGGACCGGTTTTCCCGGTAATCCGTATTTGAC (site GGTTGGACTGT)”, the “recombinant UMI read abundance (log10)” value was 0.
For “GTTTGGACATGGACCGGTTTTCCCGGTAATCCGTATTTGAC (site GTTTGGACTGT)”, the “recombinant UMI read abundance (log10)” value was 1.91.
In the case of “TAAAGCCCATGGACCGGTTTTCCCGGTAATCCGTATTTGTA (site TAAAGACCTTA)”, the “recombinant UMI read abundance (log10)” value is reported as 0.00168.
For “TAAAGCCCATGGACCGGTTTTCCCGGTAATCCGTATTTGTA (site TAAAGCCCTTA)”, the “recombinant UMI read abundance (log10)” value was 1.58.
In the case of “TAAAGCCCATGGACCGGTTTTCCCGGTAATCCGTATTTGTA (site TAAAGGCCTTA)”, the “recombinant UMI read abundance (log10)” value is reported as 0.00691.
In the case of “TAAAGCCCATGGACCGGTTTTCCCGGTAATCCGTATTTGTA (site TAAAGTCCTTA)”, the “recombinant UMI read abundance (log10)” value is reported as 0.0272.
With “TAAAGGGCATGGACCGGTTTTCCCGGTAATCCGTATTTGTG (site TAAAGGGCTCA)” the “recombinant UMI read abundance (log10)” value was 1.23.
In the case of “TAAAGTACATGGACCGGTTTTCCCGGTAATCCGTATTTGTA (site TAAAGTACTTA)”, the “recombinant UMI read abundance (log10)” value is reported as 1.41.
For “TAAAGTACATGGACCGGTTTTCCCGGTAATCCGTATTTGTA (site TAAAGTCCTTA)”, the “recombinant UMI read abundance (log10)” value was 0.00305.
With “TAAAGTACATGGACCGGTTTTCCCGGTAATCCGTATTTGTA (site TAAAGTGCTTA)” the “recombinant UMI read abundance (log10)” value was 0.204.
With “TAAAGTACATGGACCGGTTTTCCCGGTAATCCGTATTTGTA (site TAAAGTTCTTA)” the “recombinant UMI read abundance (log10)” value was 0.
For “TAAAGTCCATGGACCGGTTTTCCCGGTAATCCGTATTTGAA (site TAAAGTCCTTA)”, the “recombinant UMI read abundance (log10)” value was 0.00424.
In the case of “TAAAGTCCATGGACCGGTTTTCCCGGTAATCCGTATTTGAA (site TAAAGTCCTTC)”, the “recombinant UMI read abundance (log10)” value is reported as 0.144.
For “TAAAGTCCATGGACCGGTTTTCCCGGTAATCCGTATTTGAA (site TAAAGTCCTTG)”, the “recombinant UMI read abundance (log10)” value was 0.
With “TAAAGTCCATGGACCGGTTTTCCCGGTAATCCGTATTTGAA (site TAAAGTCCTTT)” the “recombinant UMI read abundance (log10)” value was 0.775.
With “TAACCCACATGGACCGGTTTTCCCGGTAATCCGTATTTGTG (site TAACCCACTCA)” the “recombinant UMI read abundance (log10)” value was 0.0264.
With “TAACCTTCATGGACCGGTTTTCCCGGTAATCCGTATTTGGT (site TAACCTTCTAC)” the “recombinant UMI read abundance (log10)” value was 0.00557.
In the case of “TAACCTTCATGGACCGGTTTTCCCGGTAATCCGTATTTGGT (site TACCCTTCTAC)”, the “recombinant UMI read abundance (log10)” value is reported as 0.00501.
With “TAACCTTCATGGACCGGTTTTCCCGGTAATCCGTATTTGGT (site TAGCCTTCTAC)” the “recombinant UMI read abundance (log10)” value was 0.244.
For “TAACCTTCATGGACCGGTTTTCCCGGTAATCCGTATTTGGT (site TATCCTTCTAC)”, the “recombinant UMI read abundance (log10)” value was 0.
With “TAACTAGCATGGACCGGTTTTCCCGGTAATCCGTATTTGCG (site TAACTAGCTCG)” the “recombinant UMI read abundance (log10)” value was 0.
